Measured values taken from patent US10980812B2, “3-(4-((4-(morpholinomethyl-benzyl)oxy)-1 -oxoisoindolin-2-yl)piperidine-2,6-dione for the treatment of systemic lupus erythematosus” (Celgene Corporation, priority 2014, dated 2021).
Like-named read-outs stand apart in the source and are kept apart here.

Experiments:
Aiolos [1] = assay: T cell intracellular Aiolos after single doses in healthy volunteers; format: in vivo, human; settings: 12 hours postdose
Procedure: (§1) Healthy volunteers were administered placebo (n=10) or Compound 1A at doses of 0.03 mg, 0.1 mg, 0.3 mg, 1 mg, or 2 mg (N=6 each). Blood samples were drawn prior to dosing, or 3 hr, 12 hr, and 24 hr after dosing. Blood samples were lysed and fixed immediately by mixing 1 volume of blood with 20 volumes of 1× Lyse/Fix buffer (BD Biosciences, cat#558049) and mixing thoroughly by inverting the tube several times. This sample mix was incubated in a 37° C. water bath for 10 minutes, and the cells were pelleted by centrifugation at 800×g for 5 minutes to remove the supernatant by aspiration. The cells were washed twice with 2 mL of cold phosphate buffer saline (PBs), then permeabilized by adding 2 mL of cold BD Cytofix/cytoperm buffer and incubated on ice for 15 minutes. The cells were centrifuged than washed twice with BD perm/wash buffer, then resuspended in 40 ul of BD perm/wash buffer. Cells were stained with anti-CD3 or anti-CD19 antibody, and 20 ul of anti-Aiolos Ab (Santa Cruz Santa Cruz, rabbit polyclonal IgG, cat #sc-101982 at 1:200 dilution with staining buffer), or 20 uL of appropriate isotype controls to cells. Cells were mixed thoroughly and incubated at room temperature for 30 minutes in the dark, washed once with BD perm/wash buffer, then resuspended in 80 ul of BD perm/wash buffer, and 20 uL of secondary antibody was added before analysis on a flow cytometer.

Aiolos [2] = assay: B cell intracellular Aiolos after single doses in healthy volunteers; format: in vivo, human
Procedure: as §1

Ikaros = Ikaros protein level in whole blood leukocyte subsets, flow cytometry; format: cell-based, human; settings: 1, 10, 100 nM, 18 hrs; CD19+ B cells, CD3+ T cells, CD14+ monocytes, granulocytes
Procedure: (§2) Human heparinized whole blood from normal healthy volunteers (Bioreclamation, Westbury, N.Y.) was treated with 0.1% DMSO and Compound 1A (1, 10, 100 nM) for 18 hrs at 37° C., 5% CO2. After 18 hrs, the blood was lysed and fixed with 1× Lyse/Fix Buffer (BD Biosciences) for 10 minutes at 37° C. Washed cells with cold PBS and cells were first multicolor stained with mouse anti-human CD3-PE mAb, mouse anti-human CD19-APC mAb and mouse anti-human-CD14-PerCP mAb (all from BD Biosciences) to identify CD3+ T cells, CD19+ B cells and CD14+ monocytes, respectively. The cells were then permeabilized by adding BD Perm/Wash Buffer I. Blocked non-specific binding by added FcR Blocking Reagent (Miltenyi Biotech) for 10 minutes prior to staining for intracellular Aiolos or Ikaros content. The cells were then stained with rabbit anti-human Aiolos polyclonal Ab (Santa Cruz, 1:200 dilution in Perm/Wash Buffer) or anti-human Ikaros polyclonal Ab (Santa Cruz, 1:50 dilution in Perm/Wash Buffer), followed by a goat-anti-rabbit mAb-AF488 Ab (Invitrogen, at 1:400 dilution in Perm/Wash Buffer) to test the intracellular Aiolos or Ikaros levels. […] Aiolos and Ikaros protein levels in B cells, T cells, monocytes and granulocytes were analyzed by FACSCanto with FACSDiva 6 (BD Biosciences) based on the gating of CD3+ cells, CD19+ cells, CD14+ cells and granulocytes (FSC/SSC). […]

CD19+ B cells = assay: Peripheral blood B cell counts in healthy volunteers; format: in vivo; settings: Homo sapiens
Procedure: as §1, with “Blood samples were drawn prior to dosing, or 3 hr, 12 hr, and 24 hr after dosing.” left out
Absolute B cell counts in the peripheral blood were measured by flow cytometry with anti-CD19 antibody as described above.

[3] = tested on: anti-dsDNA autoantibodies, SLE PBMC; assay: Anti-dsDNA autoantibody production in cultures of SLE PBMC (ELISA); format: cell-based; settings: Homo sapiens, N=9
Procedure: (§3) PBMCs were purified from human buffy coats using Ficoll-Paque method. CD19+ B cells were isolated from PBMC by following EasySep Human B cell enrichment cocktail protocol (StemCell Technologies Catalog #19054). Fresh B cell cocktail was prepared by adding 50 μg/mL of human transferrin to B cell medium (Iscove's medium with 10% PFBS, 1% P/S, and 5 μg/mL human insulin). The required volume of medium needed for the experiment was filtered through a 0.22 micron filter. B cell differentiation cocktail (final concentration): recombinant human Interleukin (IL)-2 (20 U/mL), IL-10 (50 ng/mL), IL-15 (10 ng/mL), CD40 Ligand/TNFSF5/histidine-tagged (50 ng/mL), polyHistidine mouse IgG1 antibody (5 μg/mL), and ODN 2006-Human TLR9 ligand (10 μg/mL). CD19+ cells were pretreated with Compound 1A or a Syk inhibitor or 0.1% DMSO for 1 hr, then incubated with B-cell differentiation medium for indicated times.
(§4) Whole blood samples from patients identified with SLE were obtained from Sanguine Biosciences; Inc. the blood was diluted with sterile Dulbecco's phosphate buffered saline solution (DPBS) and placed into three 50-mL conical tubes. […] Cell culture supernatants were harvested and analyzed for autoantibodies using an Anti-double stranded DNA antibody ELISA kit (Orgentec ORG 604S) and an Anti-Cardiolipin/Phospholipid ELISA kit (Orgentec ORG-529).

CD3+ T cells = assay: Peripheral blood T cell counts in healthy volunteers; format: in vivo, human
Procedure: as §1
Absolute T cell counts in the peripheral blood were measured by flow cytometry with anti-CD3 antibody as described above.

[4] = tested on: anti-phospholipid autoantibodies, SLE PBMC; assay: Anti-phospholipid autoantibody production in cultures of SLE PBMC (ELISA); format: cell-based; settings: Homo sapiens, N=8
Procedure: as §3, §4

IL-2 = assay: Ex vivo IL-2 production in anti-CD3-stimulated whole blood of dosed healthy volunteers; design: species or system human; settings: 12 hours postdose on Day 1
From the text: Whole blood was stimulated with anti-CD3 antibody and analyzed for IL-2 using the CD3 TruCulture system (Part number 782-001202) by Myriad Rules Based Medicine (Austin, Tex.).

IL-1β = assay: Ex vivo IL-1β production in lipopolysaccharide-stimulated whole blood of dosed healthy volunteers; design: species or system human; settings: 12 hours postdose
From the text: Whole blood was stimulated with lipopolysachharide and analyzed for IL-1β using the LPS TruCulture system (Part number 782-001087) by Myriad Rules Based Medicine (Austin, Tex.).

Aiolos [5] = assay: Aiolos protein level in whole blood leukocyte subsets, flow cytometry; format: cell-based, human; settings: 1, 10, 100 nM, 18 hrs; CD19+ B cells, CD3+ T cells, CD14+ monocytes, granulocytes
Procedure: as §2

## O=C1CC[C@H](N2Cc3c(OCc4ccc(CN5CCOCC5)cc4)cccc3C2=O)C(=O)N1 [Compound 1A, (S)-3-[4-(4-morphlin-4-ylmethylbenzyloxy)-1-oxo-1,3-dihydro-isoindo-2-yl]piperidine-2,6-dione]
Aiolos [1]; 1 mg single dose
  T cell intracellular Aiolos, percent of baseline: 22.3%
Aiolos [1]; 2 mg single dose
  T cell intracellular Aiolos, percent of baseline: 26.1%
Aiolos [2]; 0.3 mg single dose, 24 hours postdose
  B cell intracellular Aiolos, percent of baseline: 24.8%
Aiolos [2]; 1 mg single dose, 12 hours postdose
  B cell intracellular Aiolos, percent of baseline: 28.2%
Aiolos [2]; 2 mg single dose, 12 hours postdose
  B cell intracellular Aiolos, percent of baseline: 25.0%
Ikaros
  Ikaros protein levels in whole blood leukocyte subsets: reduced
CD19+ B cells; 48 h, 1 mg, Day 2, read-out: absolute CD19+ cells, mean percent of baseline (maximum response)
  Emax: 67.3%
CD19+ B cells; 72 h, 0.3 mg, Day 3, read-out: absolute CD19+ cells, mean percent of baseline (maximum response)
  Emax: 73.5%
CD19+ B cells; 72 h, 2 mg, Day 3, read-out: absolute CD19+ cells, mean percent of baseline (maximum response)
  Emax: 51.3%
[3]
  IC50: ~10 nM
CD3+ T cells; 0.3 mg, Day 2
  peripheral blood T cell counts, percent of baseline: 84.1%
CD3+ T cells; 1 mg, Day 2
  peripheral blood T cell counts, percent of baseline: 79.4%
CD3+ T cells; 2 mg, Day 5
  peripheral blood T cell counts, percent of baseline: 73.8%
[4]
  IC50: ~10 nM
IL-2; 0.3 mg
  maximum IL-2, mean percent of baseline: 315%
IL-2; 1 mg
  maximum IL-2, mean percent of baseline: 973%
IL-2; 2 mg
  maximum IL-2, mean percent of baseline: 915%
IL-1β; 0.3 mg
  maximum IL-1β response, mean percent of baseline: 42.2%
IL-1β; 1 mg
  maximum IL-1β response, mean percent of baseline: 21.8%
IL-1β; 2 mg
  maximum IL-1β response, mean percent of baseline: 16.3%
Aiolos [5]
  Aiolos protein levels in whole blood leukocyte subsets: reduced
